Results published in patent publication US5824771A, “Cyclic CRF agonists” (The Salk Institute for Biological Studies, priority 1997, dated 1998).
Bridge positions count the residues as written; N and C are the ends. Square brackets hold non-standard residues; d marks the D form. Peptide text beside a SMILES is read from it. Nle = CCCC[C@H](N)C(=O)O

Tests used:
[1] = Lowering of blood pressure on peripheral or iv administration; assay type: in vivo; details: peripheral administration
[2] = tested on: rat anterior pituitary cells; assay: In vitro stimulation of ACTH and β-endorphin secretion by cultured rat pituitary cells, potency compared with oCRF (Standard) or r/hCRF; assay type: cell-based; details: general procedure of Example 1
Procedure: The cyclic CRF agonists are examined for their effects on the secretion of ACTH and β-endorphin in vitro and also in vivo. […] In vivo testing is carried out using the general procedure set forth in C. Rivier et al., Science, 218, 377 (1982).

CCCC[C@H](NC(=O)[C@H](CCCCN)NC(=O)[C@H](C)NC(=O)[C@H](CCCNC(=N)N)NC(=O)[C@H](Cc1c[nH]cn1)NC(=O)[C@@H](NC(=O)[C@H](CCCC)NC(=O)[C@H](CC(N)=O)NC(=O)[C@H](CCCNC(=N)N)NC(=O)[C@H](CC(C)C)NC(=O)[C@H](CCCC)NC(=O)[C@H](Cc1c[nH]cn1)NC(=O)[C@@H](Cc1ccccc1)NC(=O)[C@@H](NC(=O)[C@H](CC(C)C)NC(=O)[C@H](CC(=O)O)NC(=O)[C@@H](NC(=O)[C@H](CO)NC(C)=O)[C@@H](C)CC)[C@@H](C)O)[C@@H](C)CC)C(=O)N[C@@H](CCC(=O)O)C(=O)NCC(=O)N[C@@H](CCC(=O)O)C(=O)N[C@@H](CCCNC(=N)N)C(=O)N[C@@H](CCC(=O)O)C(=O)N[C@H]1CCC(=O)NCCCC[C@@H](C(=O)N[C@@H](CC(N)=O)C(=O)N[C@@H](CCCNC(=N)N)C(=O)N[C@@H](CC(N)=O)C(=O)N[C@@H](CC(C)C)C(=O)N[C@@H](CC(C)C)C(=O)N[C@@H](CC(=O)O)C(=O)N[C@@H](CCC(=O)O)C(=O)N[C@H](C(N)=O)C(C)C)NC(=O)[C@@H](CCC(N)=O)NC(=O)[C@H](C)NC1=O [Example 16 H, (cyclo 30-33)[Ac-Ser^7, D-Phe^12, Nle^14,18,24, Glu^30, D-Gln^32, Lys^33]-flounder urotensin(7-41)] (Ac-SIDLT[dF]H[Nle]LRN[Nle]IHRAK[Nle]EGEREEA[dQ]KNRNLLDEV-NH2; lactam 24-27)
lowering of blood pressure when administered peripherally, in words [1]: very significant lowering of blood pressure | stimulation of secretion of ACTH and β-END-LI (testing by the general procedure), in words [2]: stimulate the secretion of ACTH and β-END-LI

CCCC[C@H](NC(=O)[C@H](CCC(=O)O)NC(=O)[C@H](CC(C)C)NC(=O)[C@H](CCCC)NC(=O)[C@H](CCC(=O)O)NC(=O)[C@H](CCCNC(=N)N)NC(=O)[C@H](CC(C)C)NC(=O)[C@H](CC(C)C)NC(=O)[C@H](Cc1c[nH]cn1)NC(=O)[C@@H](Cc1ccccc1)NC(=O)[C@@H](NC(=O)[C@H](CC(C)C)NC(=O)[C@H](CC(=O)O)NC(=O)[C@H](CC(C)C)NC(=O)[C@H](CO)NC(C)=O)[C@@H](C)O)C(=O)N[C@@H](C)C(=O)N[C@@H](CCCCN)C(=O)N[C@@H](C)C(=O)N[C@@H](CCC(=O)O)C(=O)N[C@@H](CCC(N)=O)C(=O)N[C@@H](CCC(=O)O)C(=O)N[C@@H](C)C(=O)N[C@@H](CCC(=O)O)C(=O)N[C@H]1CCC(=O)NCCCC[C@@H](C(=O)N[C@@H](CC(N)=O)C(=O)N[C@@H](CCCNC(=N)N)C(=O)N[C@@H](CC(C)C)C(=O)N[C@@H](CC(C)C)C(=O)N[C@@H](CC(C)C)C(=O)N[C@@H](CCC(=O)O)C(=O)N[C@@H](CCC(=O)O)C(=O)N[C@@H](C)C(N)=O)NC(=O)[C@@H](C)NC(=O)[C@H](C)NC1=O [Example 16 A, (cyclo 30-33)[Ac-Ser^7, D-Phe^12, Nle^18,21, Glu^30, D-Ala^32, Lys^33]-AHC(7-41)] (Ac-SLDLT[dF]HLLRE[Nle]LE[Nle]AKAEQEAEEA[dA]KNRLLLEEA-NH2; lactam 24-27)
lowering of blood pressure when administered peripherally, in words [1]: very significant lowering of blood pressure | stimulation of secretion of ACTH and β-END-LI (testing by the general procedure), in words [2]: strongly stimulates the secretion of ACTH and β-END-LI
